Measurements taken from ChEMBL document CHEMBL1148014, “Antileukotrienic N-arylethyl-2-arylacetamides in the treatment of ulcerative colitis” (Eur J Med Chem, 2007).
Activity calls are given as the source filed them. The calls are words filed in the database; no cut-off is given here.

What was measured:
physchem = conditions: octanol/water
Description: Partition coefficient, log P of the compound

Mus musculus [1] = organism: Mus musculus; assay: animal or person; conditions: po, read-out: Inhibition
Rattus norvegicus = organism: Rattus norvegicus; assay: animal or person; conditions: read-out: Inhibition
Leukotriene B4 receptor = Leukotriene B4 receptor (Homo sapiens, UniProt Q9NPC1+Q15722)
Description: Displacement of [3H]LTB4 from LTB4 receptor in guinea pig spleen membrane

[2] = octanol/water
Description: Lipophilicity, log K of the compound

Mus musculus [3] = organism: Mus musculus; assay: animal or person; conditions: po, read-out: Inhibition; remark: listed apart in the source
Mus musculus [4] = organism: Mus musculus; assay: Antiinflammatory activity against dextran sodium sulfate-induced ulcerative colitis in BALB/c mouse assessed as stool consistency; assay type: functional, organism-based
Mus musculus [5] = organism: Mus musculus; assay: Antiinflammatory activity against dextran sodium sulfate-induced ulcerative colitis in BALB/c mouse assessed as large intestinal bleeding; assay type: functional, organism-based
Mus musculus [6] = assay: Stimulation of hyperaemia in mouse at 200 mg/kg, po; assay type: functional

SMILES | logP (physchem) | IC50 (Leukotriene B4 receptor) [nM] | log K [2] | inhibition in vivo at 200 mg/kg (Mus musculus [1]) [%] | inhibition in vivo at 100 mg/kg (Rattus norvegicus) [%] | inhibition in vivo at 200 mg/kg (Mus musculus [3]) [%] | Activity (Mus musculus [4]) | Activity (Mus musculus [5]) | Activity (Mus musculus [6]) [%]
CN(CCc1ccccc1)C(=O)Cc1ccc(OCCCOc2ccc(CC(=O)O)cc2Cl)cc1 | 5.81 | 2400 | 0.253 | 20 | 12 |  |  |  | 
O=C(O)Cc1ccc(OCCCCOc2ccc(CC(=O)NCCc3ccccc3)cc2)cc1 | 5.44 |  | 0.089 | 23 |  |  |  |  | 
CC(c1cc2ccccc2s1)N(O)C(N)=O (stereo not given) [ZILEUTON] |  |  |  |  | 46 | 13 |  |  | 
Cc1cccc(CCN(C)C(=O)Cc2ccc(OCCCCOc3ccc(CC(=O)O)cc3)cc2)c1 | 6.2 | 1100 | 0.47 | 44 | 14 |  |  |  | 
COc1cc(CC(=O)O)ccc1OCCCCOc1ccc(CC(=O)N(C)CCc2ccc(Br)cc2)cc1 | 6.11 | 1900 | 0.354 | 38 | 27 |  | Active | Active | 
COc1cc(CC(=O)O)ccc1OCCCOc1ccc(CC(=O)N(C)CCc2ccccc2)cc1 | 4.73 | 67000 | 0.013 | 14 |  |  |  |  | 
Cc1ccc(CCN(C)C(=O)Cc2ccc(OCCCCOc3ccc(CC(=O)O)cc3)cc2)cc1 | 6.2 | 660 | 0.471 | 20 |  |  |  |  | 

Further lines, with some results ahead:

logP (physchem) | IC50 (Leukotriene B4 receptor) [nM] | log K [2] | SMILES | inhibition in vivo at 200 mg/kg (Mus musculus [1]) [%] | inhibition in vivo at 100 mg/kg (Rattus norvegicus) [%] | inhibition in vivo at 200 mg/kg (Mus musculus [3]) [%] | Activity (Mus musculus [4]) | Activity (Mus musculus [5]) | Activity (Mus musculus [6]) [%]
5.22 | 8600 | 0.12 | COc1cc(CC(=O)O)ccc1OCCCCOc1ccc(CC(=O)N(C)CCc2ccccc2)cc1 | 21 | 0 |  |  |  | 
5.62 |  | 0.193 | COc1cc(CC(=O)O)ccc1OCCCOc1ccc(CC(=O)N(C)CCc2ccc(Br)cc2)cc1 | 38 | 3 |  |  |  | 
6.3 | 1200 | 0.364 | CN(CCc1ccccc1)C(=O)Cc1ccc(OCCCCOc2ccc(CC(=O)O)cc2Cl)cc1 | 23 | 32 |  | inactive | inactive | 
5.65 | 4700 | 0.287 | CN(CCc1ccccc1)C(=O)Cc1ccc(OCCCCOc2ccc(CC(=O)O)cc2)cc1 | 45 | 30 |  |  |  | 
5.16 | 18000 | 0.166 | CN(CCc1ccccc1)C(=O)Cc1ccc(OCCCOc2ccc(CC(=O)O)cc2)cc1 | 20 | 39 |  |  |  | 
5.01 |  | -0.079 | COc1cc(CC(=O)O)ccc1OCCCCOc1ccc(CC(=O)NCCc2ccccc2)cc1 | 23 |  |  |  |  | 7.7
